Data on two compounds can be found in US20060111289A1, “Compositions and methods of using Alpha-fetoprotein growth inhibitory peptides” (Serometrix, LLC,, priority 2004, published 2006).

Where a SMILES comes first, the peptide text is derived from it.

Assay [1] relates to MCF-7 cells. Briefly: MCF-7 cell proliferation assay (8 days, sulforhodamine B). Format: cell-based, human. As for the experimental part: MCF-7 cells were seeded at 25,000 cells/well in 48 well microtiter plates, and incubated for eight days in the various test and control reagents. […] Tumor cells were fixed after 8 days and analyzed for proliferation using the standard sulfarhodamine B staining procedure.

In assay [2] the test system is MCF-7 cells. Briefly: Estrogen-dependent MCF-7 foci formation assay. Details: % Inhibition Of Activity: MCF-7 foci formation: concentration or dose not given beside the values. Format: cell-based, human. The source says:
Mizejewski et al., “Alpha-fetoprotein derived synthetic peptides: assay of an estrogen-modifying regulatory segment” Mol Cell Endocrinol 118:15-23 (1996). The P149 peptide inhibited the formation of tumor cell foci formed as a result of the accumulation of breast cancer cells which clump together due to loss of contact inhibition.

Assay [3] has as its system immature mouse uterine growth. In words: E2-activated immature mouse uterine growth assay. Format: in vivo. The arrangement: % Inhibition Of Activity: Uterine Growth: concentration or dose not given beside the values. The settings on record: for Inhibition in the mouse uterine assay: linear versus cyclic configuration. As to the method:
FIG. 3 presents exemplary data showing the growth suppressive activities of the oligomeric forms of P149, cyclic versus linear, are depicted in various in vitro and in vivo models. Biological activity was determined by three growth-dependent bioassays, namely; • Panel-A and A1) an immature rodent uterine bioassay; • Panel-B and B 1) an in vitro MCF-7 foci assay; • Panel-C and C1) an in vitro tumor cell cytostatic assessment. […] See text for details. Scrambled peptide=P327. […]

Assay [4] concerns immature mouse uterine growth. Briefly: E2-activated immature mouse uterine growth assay. The arrangement: concentration or dose not given beside the values. Format: in vivo.
The test system of assay [5] is 6WI-1 mammary tumor cells. Briefly: Mouse ascites mammary tumor assay (6WI-1 isograft). Format: in vivo. As to the method: The growth suppression of the mammary ascites tumor by AFP peptides and its fragments P149a, P149b and P149c, and control peptides were determined in non-estrogen dependent assays which measured tumor cell growth and ascites accumulation of 6WI-1 mammary transplanted NYLAR/nya mice. […] Tumor cell inocula included doses of 0.3, 1.0, and 3.0×10^6 cells which produced host mortality at 12-14 days which was lethal in 100% of the animals. Following peptide dose titration studies, mice inoculated with 6WI-1 mammary cells were injected with a previously-determined optimal dose of 1.0 μg peptide per day or saline for 11 days. On day 12 following inoculation, the total accumulated ascites fluid volume and tumor cells in the peritoneal cavity of each animal were harvested and the cell count determined.
Inoculation of mice with all three cell doses led to an increase in body weight from 25 g (day 0) to approximately […] by day 12, due to the accumulation of tumor cells and ascites fluid in the intraperitoneal cavity. An average cell count in accumulated ascites fluid on day 12 was greater than 10^8 cells/ml with a total ascites volume approximating 20 mls. Tumor cell proliferation in this model has been reported to correlate with the volume of ascites fluid accumulated.
The 6WI-1 mouse mammary tumor studies involving peptide and non-peptide treatment were further compared by histopathological analysis performed on hematoxylin/eosin stained tissue sections.

The test system of assay [6] is human platelets. Briefly: Platelet aggregation in human platelet-rich plasma. Format: cell-based. The arrangement: % Inhibition Of Activity: Platelet Agg. ADP / % Inhibition Of Activity: Platelet Agg. AA / % Inhibition Of Activity: Platelet Agg. Coll: concentration or dose not given beside the values. As for the experimental part: FIG. 9 presents exemplary data showing platelet aggregation modulation using 0.5 ml of normal human platelet-rich plasma (PRP) with varying amounts of P149 or P 149b using 2.5×10^6 platelets per reaction vessel.
FIG. 10 presents exemplary data showing platelet aggregation activation by arachidonic acid (AA) and collagen using P149-treated platelet suspensions • Panel A1: AA alone; • Panel A2: AA followed by epinephine (EPI) and EPI alone using P149b; • Panel A3: CD62P flow cytometry fluorescence quenching by P149; • Panel B1: collagen alone and collagen+P149; • Panel B2: collagen alone; collagen+P149a showing aggregation diminution.
GIP-derived peptide fragments and/or subfragments have been assayed for platelet aggregation by measuring light transmissions with an aggregometer using a stirred human platelet suspension. Kinlough-Rathbone et al., In: Platelet Aggregation in Measurements of Platelet Function, Eds. Harker L A, Zimmerman T S., Churchill Livingstone, London. pp. 64-87 (1983); and Whittle et al., “Specificity between the anti-aggregatory actions of prostacyclin, prostaglandin Eland D2 on platelets” In: Mechanisms of stimulus—response coupling in platelets, Eds. V. V. K., MacIntyre D E, Scully M F., New York and London: Plenum Press. pp. 109-115 (1985).
The ability of GIP and its fragments were individually examined for aggregation inhibition using citrated human platelet-rich plasma (PRP). The peptides were freshly dissolved in 0.15 M NaCl containing 2.5×10^6 platelets/ml. […]

Assay [7] deals with human kidney tumor cell line.
[8] abbreviates: 6WI-1 mouse mammary ascites tumor.

Turning to `CC[C@H](C)[C@H](NC(=O)[C@@H]1CSSC[C@H](NC(=O)[C@H](C)NC(=O)[C@H](CC(C)C)NC(=O)[C@H](CC(C)C)NC(=O)[C@H](CCCCN)NC(=O)[C@H](CC(=O)O)NC(=O)[C@H](CCC(=O)O)NC(=O)[C@H](CO)NC(=O)[C@@H](N)CC(C)C)C(=O)NCC(=O)N[C@@H](CCC(=O)O)C(=O)NCC(=O)N[C@@H](C)C(=O)N[C@@H](C)C(=O)N[C@@H](CC(=O)O)C(=O)N[C@@H]([C@@H](C)CC)C(=O)N[C@@H]([C@@H](C)CC)C(=O)N[C@@H]([C@@H](C)CC)C(=O)NCC(=O)N[C@@H](Cc2c[nH]cn2)C(=O)N[C@@H](CC(C)C)C(=O)N1)C(=O)N[C@@H](CCCNC(=N)N)C(=O)N[C@@H](Cc1c[nH]cn1)C(=O)N[C@@H](CCC(=O)O)C(=O)N[C@@H](CCSC)C(=O)N[C@H](C(=O)N1CCC[C@H]1C(=O)N[C@H](C(=O)N[C@@H](CC(N)=O)C(=O)N1CCC[C@H]1C(=O)NCC(=O)N[C@H](C(=O)O)C(C)C)C(C)C)[C@@H](C)O` [Cyclic GIP] (HELM PEPTIDE1{L.S.E.D.K.L.L.A.C.G.E.G.A.A.D.I.I.I.G.H.L.C.I.R.H.E.M.T.P.V.N.P.G.V}$PEPTIDE1,PEPTIDE1,9:R3-22:R3$$$V2.0; N-terminus and C-terminus assumed), the “Growth suppression of MCF-7 cells” value in assay [1] (8 days, 10^−8 to 10^−12 M) lay in the range of 80 to 90%. The “Most effective concentration for growth suppression” value in assay [1] (culture day-8, tested 10^−5 to 10^−14 M) was 10^−8 M. Further, the “Inhibition in the MCF-7 foci-assay” value in assay [2] (linear versus cyclic configuration) is recorded as 20-25%. The “Inhibition in the mouse uterine assay” value in assay [3] is listed as 20-25%; in assay [3] (listed as cyclic peptide), “only marginally inhibitory”.

For “KDFIHKQGVALQTMKQELINLVKELVKPQIEAVADFSGLL (listed as Homo sapiens) [P192, reference compound]”, in assay [4], the “% Inhibition Of Activity: Uterine Growth, Enzymatic Fragments” value turned out to be 0%. For the same compound, in assay [2], the “% Inhibition Of Activity: MCF-7 foci formation” value was found to be 0%. Besides, in assay [5] (setting [8]), the “% Inhibition Of Activity: 6WI-1 Acites Volume” value was found to be 0%, the “% Inhibition Of Activity: 6WI-1 Body Weight” value is recorded as 0% and the “% Inhibition Of Activity: 6WI-1 Cell Prol” value is reported as 0%. Further, the “% Inhibition Of Activity: 6WI-1 Peptide Combos” value in assay [5] (peptide combination) came to 0%. In assay [6] (ADP-induced), the “% Inhibition Of Activity: Platelet Agg. ADP” value is reported as 0%. Also, the “% Inhibition Of Activity: Platelet Agg. AA” value in assay [6] (arachidonic acid-induced) turned out to be 0%. The “% Inhibition Of Activity: Platelet Agg. Coll” value in assay [6] (collagen-induced) is 0%. Moreover, in assay [6] (peptide inhibitors 30 & 100 μM), the “Inhibition (%) Of Platelet Aggregation, Adenosine Diphosphate (ADP) 2.5 μM” value is reported as “No effect”; the “Inhibition (%) Of Platelet Aggregation, Arachidonic Acid (AA) 0.3 mM” value is given as “No effect”; the “Inhibition (%) Of Platelet Aggregation, Collagen (COLL) 2 μg/ml” value is “No effect”; the “Inhibition (%) Of Platelet Aggregation, Epinephrine” value is “No effect”. For the same compound, the “% Inhibition Of Activity: Uterine Growth” value in assay [3] (mouse, in vivo) is on record as 0%. Also, the “% Inhibition Of Activity: Kidney tumor growth” value in assay [7] was found to be 0%.
